Measured values reported in PubChem BioAssay (NCI).
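Protocol summary: plate cells (96-well), add compound at 5 concentrations, incubate 48 h, interpolate endpoints linearly. TGI denotes the concentration required for complete inhibition of growth.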 Where a SMILES comes first, the peptide text is derived from it. The star is where a group is joined. Boc = CC(C)(C)OC(=O)*

Key:
Assay in all cases: growth of human tumour cells (NCI), 48 h
[1] = test system: A549 NSCLC
[2] = test system: SR leukemia
[3] = test system: SNB-19 CNS
[4] = test system: OVCAR-3 ovarian
[5] = test system: HT29 colon
[6] = test system: HCT-15 colon
[7] = test system: MDA-MB-435
[8] = test system: SK-OV-3 ovarian
[9] = test system: SW-620 colon
[10] = test system: OVCAR-4 ovarian
[11] = test system: A498 renal
[12] = test system: MCF7 breast
[13] = test system: SF-295 CNS
[14] = test system: TK-10 renal
[15] = test system: SF-268 CNS
[16] = test system: 786-0 renal
[17] = test system: COLO 205 colon
[18] = test system: K-562 leukemia
[19] = test system: HS 578T breast
[20] = test system: NCI-H226 lung
[21] = test system: HCT-116 colon
[22] = test system: IGROV1 ovarian
[23] = test system: SF-539 CNS
[24] = test system: NCI-H460 lung
[25] = test system: PC-3 prostate
[26] = test system: SK-MEL-28 melanoma
[27] = test system: SK-MEL-2 melanoma
[28] = test system: UO-31 renal
[29] = test system: RXF 393 renal
[30] = test system: DU-145 prostate
[31] = test system: U251 CNS
[32] = test system: NCI/ADR-RES ovarian
[33] = test system: SN12C renal
[34] = test system: BT-549 breast
[35] = test system: HCC-2998 colon
[36] = test system: RPMI-8226 leukemia
[37] = test system: M14 melanoma
[38] = test system: SNB-75 CNS
[39] = test system: UACC-62 melanoma
[40] = test system: UACC-257 melanoma
[41] = test system: HOP-62 NSCLC
[42] = test system: MALME-3M melanoma
[43] = test system: NCI-H23 lung
[44] = test system: LOX IMVI melanoma
[45] = test system: CCRF-CEM leukemia
[46] = test system: MOLT-4 leukemia
[47] = test system: SK-MEL-5 melanoma
[48] = test system: OVCAR-8 ovarian
[49] = test system: MDA-MB-231 breast
[50] = test system: HL-60(TB) leukemia
[51] = test system: NCI-H522 lung
[52] = test system: ACHN renal
[53] = test system: T-47D breast
[54] = test system: EKVX NSCLC
[55] = test system: OVCAR-5 ovarian
[56] = test system: HOP-92 NSCLC
[57] = test system: CAKI-1 renal
[58] = test system: KM12 colon
[59] = test system: MDA-N

Compound `O=C1CCCC/C1=C(\Br)I` has a TGI [1] of 58.6 µM, a TGI [2] of 9.49 µM and a TGI [3] of 47.5 µM. The TGI [4] was 32.1 µM, the TGI [5] was 27.4 µM and the TGI [6] was 7.97 µM. The TGI [7] was 29.4 µM, the TGI [8] was 49.2 µM and the TGI [9] was 10.4 µM. For the same compound, the TGI [10] was 29.3 µM, the TGI [11] was 35.7 µM and the TGI [12] was 32.9 µM. The TGI [13] was 37.7 µM, the TGI [14] was 18.4 µM and the TGI [15] was 14.8 µM. The TGI [16] was 37.5 µM, the TGI [17] was 28.8 µM and the TGI [18] was 10.3 µM. For the same compound, the TGI [19] was > 100 µM, the TGI [20] was 43.7 µM and the TGI [21] was 25 µM. The TGI [22] was 40.8 µM, the TGI [23] was 41.2 µM and the TGI [24] was 33 µM. It also gave a TGI [25] of 32.9 µM, a TGI [26] of 29.9 µM and a TGI [27] of 38.6 µM. The TGI [28] was 31.5 µM, the TGI [29] was 29.5 µM and the TGI [30] was 26 µM. The TGI [31] was 34 µM, the TGI [32] was 41.1 µM and the TGI [33] was 30.8 µM. The TGI [34] was 31.6 µM, the TGI [35] was 9.79 µM and the TGI [36] was 16.5 µM. For the same compound, the TGI [37] was 20.1 µM, the TGI [38] was 34.8 µM and the TGI [39] was 38.3 µM. It also gave a TGI [40] of 30.5 µM, a TGI [41] of 36.7 µM and a TGI [42] of 12.1 µM. It also gave a TGI [43] of 16.8 µM, a TGI [44] of 32.4 µM and a TGI [45] of 5.68 µM. It also gave a TGI [46] of 7.17 µM, a TGI [47] of 42.1 µM and a TGI [48] of 28.1 µM. The TGI [49] was 32.5 µM, the TGI [50] was 5.71 µM and the TGI [51] was 3.48 µM. The TGI [52] was 29.6 µM, the TGI [53] was 15.2 µM and the TGI [54] was 34.4 µM. It also gave a TGI [55] of 33.2 µM, a TGI [56] of 31.8 µM and a TGI [57] of 24.9 µM. The TGI [58] was 34 µM.
With `CC(C)(C)OC(=O)NC(Cc1ccccc1)C(=O)N1CCCC1C(N)=O` (stereo not drawn) (Boc-Phe-Pro-NH2; configuration not given here) the TGI [1] was > 100 µM, the TGI [2] was > 100 µM and the TGI [3] was > 100 µM. The TGI [4] was > 100 µM, the TGI [5] was > 100 µM and the TGI [6] was > 100 µM. The TGI [7] was > 100 µM, the TGI [8] was > 100 µM and the TGI [9] was > 100 µM. The TGI [10] was > 100 µM, the TGI [12] was > 100 µM and the TGI [13] was > 100 µM. For the same compound, the TGI [14] was > 100 µM, the TGI [15] was > 100 µM and the TGI [17] was > 100 µM. For the same compound, the TGI [18] was > 100 µM, the TGI [21] was > 100 µM and the TGI [22] was > 100 µM. The TGI [24] was > 100 µM, the TGI [25] was > 100 µM and the TGI [26] was > 100 µM. For the same compound, the TGI [30] was > 100 µM, the TGI [35] was > 100 µM and the TGI [36] was > 100 µM. The TGI [37] was > 100 µM, the TGI [39] was > 100 µM and the TGI [40] was > 100 µM. For the same compound, the TGI [41] was > 100 µM, the TGI [42] was > 100 µM and the TGI [44] was > 100 µM. The TGI [45] was > 100 µM, the TGI [46] was > 100 µM and the TGI [47] was > 100 µM. For the same compound, the TGI [48] was > 100 µM, the TGI [49] was > 100 µM and the TGI [50] was > 100 µM. The TGI [51] was > 100 µM, the TGI [52] was > 100 µM and the TGI [53] was > 100 µM. The TGI [54] was > 100 µM, the TGI [56] was 74 µM and the TGI [57] was > 100 µM. The TGI [59] was > 100 µM.
`CC(=O)OC(C)(C)C1O[C@@]23OC1C[C@@H](C)[C@@H]2[C@@]1(C)CC[C@@]24C[C@@]25CC[C@H](OC2OCC(O)C(O)C2O)C(C)(C)[C@@H]5CCC4[C@]1(C)[C@H]3O` (some centres undefined) showed a TGI [1] of 21.4 µM, a TGI [2] of 15.2 µM and a TGI [3] of 18.6 µM. For the same compound, the TGI [4] was 13.4 µM, the TGI [5] was 24.7 µM and the TGI [6] was 10.8 µM. The TGI [7] was 32.3 µM, the TGI [8] was 28.6 µM and the TGI [9] was > 100 µM. For the same compound, the TGI [10] was 23.8 µM, the TGI [11] was 18.2 µM and the TGI [12] was 11.9 µM. It also gave a TGI [13] of 24.7 µM, a TGI [14] of 24.5 µM and a TGI [15] of 41.3 µM. For the same compound, the TGI [16] was 18.9 µM, the TGI [17] was 25.1 µM and the TGI [18] was > 93.2 µM. The TGI [19] was 45.6 µM, the TGI [20] was 19.5 µM and the TGI [21] was 19.1 µM. For the same compound, the TGI [22] was 29.1 µM, the TGI [23] was 12 µM and the TGI [24] was 32.2 µM. The TGI [25] was 17.1 µM, the TGI [26] was 29.8 µM and the TGI [27] was 39 µM. For the same compound, the TGI [28] was 29.7 µM, the TGI [29] was 30.3 µM and the TGI [30] was 15.4 µM. It also gave a TGI [31] of 22.1 µM, a TGI [32] of 27.8 µM and a TGI [33] of 10.7 µM. The TGI [34] was 40.6 µM, the TGI [35] was 25.7 µM and the TGI [36] was 29.1 µM. For the same compound, the TGI [37] was 24.2 µM, the TGI [38] was 46.5 µM and the TGI [39] was 27.7 µM. It also gave a TGI [40] of 32.9 µM, a TGI [41] of 37.7 µM and a TGI [42] of 42.1 µM. For the same compound, the TGI [43] was 15.7 µM, the TGI [44] was 31.4 µM and the TGI [45] was > 38.3 µM. The TGI [46] was 21.5 µM, the TGI [47] was 23.3 µM and the TGI [48] was 64.8 µM. The TGI [49] was 14.8 µM, the TGI [50] was 5.48 µM and the TGI [51] was 25.3 µM. For the same compound, the TGI [52] was 17 µM, the TGI [53] was 79.4 µM and the TGI [54] was 18.8 µM. The TGI [55] was 31.8 µM, the TGI [56] was 31.6 µM and the TGI [57] was 20.4 µM. It also gave a TGI [58] of 13.8 µM.
